Reference: patent US6703388B2, “Nitrogen-containing tricyclic compounds and drugs containing the same” (Eisai Co., Ltd., priority 1996, dated 2004)
Where two headings read alike, the source gives them in different places.

How the values were obtained:
[1] = biological target: T1, tyrosine kinase of 72 kDa (Rattus norvegicus, UniProt Q64725); assay: Inhibition of activation (phosphorylation) of tyrosine kinase of 72 kDa due to antigenic stimulation in RBL-2H3 cells; assay type: cell-based
T1 construct: endogenous in cells; host or cells: RBL-2H3 cells
Protocol: RBL-2H3 cells were incubated for 10 min together with a test compound in a PBS buffer containing 0.1% of BSA and 1 mM of calcium. Next, the cells were reacted with an antigen specific for the IgE receptor for 10 min. After the completion of the antigenic stimulation, the cells were allowed to stand in ice for 1 hr in a 10 mM phosphate buffer (pH 7.5) containing a lysis buffer (1% Triton X-100, 0.1% SDS, 0.5% sodium deoxycholate, 50 mM NaCl, 50 mM NaF, 1 mM phenylmethyl sulfonyl fluoride, 50 μg/ml eupeptin, 10 unit/ml aprotonin) and 0.1% of NaN3 followed by centrifugation to give a cell lysate. This lysate was diluted with a buffer for electrophoresis, heated (95° C., 5 min) and then electrophoresed on a 10% SDS-polyacrylamide gel. After the electrophoresis, the sample was electrically transcribed onto a 0.2 μm nitrocellulose membrane and treated with an anti-phosphotyrosine antibody for 1 hr. Then the inhibitory activity was evaluated by the coloring analysis through chemiluminescence.

RBL-2H3 cells = assay: Inhibition of serotonin liberation from IgE-sensitized RBL-2H3 cells after antigen stimulation; assay type: cell-based, rat; conditions: Rattus norvegicus
Outline: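 Rat RBL-2H3 cells labelled with [3H]-serotonin and sensitized with IgE simultaneously, incubated with compound, then challenged with specific antigen. Inhibition derived from [3H]-serotonin released into medium relative to release without compound.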

human basophils = assay: Inhibition of mediator (histamine, peptide leukotriene) liberation from human basophils stimulated with mite antigen; assay type: cell-based; conditions: enzyme immunoassay
Outline: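 Dextran-separated leukocyte fraction containing basophils from heparinized human blood, in D-PBS(+) with 0.1% BSA, pretreated with compound 15 min at 37 °C, then challenged with mite antigen for 10 min. Released histamine and peptide leukotrienes in supernatant quantified by enzyme immunoassay.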

[2] = biological target: T2, IgE receptor γ chain and 72 kDa tyrosine kinase (Rattus norvegicus, UniProt Q64725); assay: Inhibition of binding of IgE receptor γ chain to tyrosine kinase of 72 kDa (kinase phosphorylation in RBL-2H3 lysate or cytosol); assay type: biochemical; conditions: Conc. of Compd. 10 μM
T2 construct: The phosphorylation experiment of the 72 kDa tyrosine kinase contained in the lysate or cytosol; endogenous in cells; host or cells: RBL-2H3 cell lysate (1% NP-40) or cytosolic fraction
Protocol: RBL-2H3 cells which are a cell line generally used in studying IgE-mediated intracellular signal transduction in mast cells and basophils were used in this study. Tyrosine-phosphorylated peptide in the tyrosine activation motif (TAM) region in the IgE receptor γ chain was synthesized by Peptide Institute.
In the experiment, cell lysates or cytosolic fraction of RBL-2H3 cells were used. Cell lysates were prepared by solubilizing 1×10^7 to 5×10^7 cells with a solution containing various protease inhibitors and 1%-NP-40 as a solubilizer. Separately, the cells were homogenized in a Downs homogenizer and centrifuged at 50,000 rpm for 1 hr, and the resulting supernatant was used as the cytosol fraction of the cells. The concentration of the lysate or cytosol was adjusted to 1 mg protein/ml with an isotonic buffer. The phosphorylation experiment of the 72 kDa tyrosine kinase contained in the lysate or cytosol was carried out in the following manner.
An assay buffer [150 mM NaCl, 10 mM KCl, 20 mM Tris (pH 7.5), 0.6 mM MnCl2, 0.5 mM EGTA, 5 mM NaF, 1 mM sodium pyrophosphate and 1 mM sodium orthovanadate] containing the lysate or cytosol in an amount corresponding to […] of protein was incubated together with the compound 101 at 30° C. for 3 min. After adding […] of the peptide in the TAM region containing the phosphorylated tyrosine and […] of ATP, the incubation was further effected at 30° C. for 15 min. After the completion of the reaction, the sample was electrophoresed on a 10% […] gel and a tyrosine kinase of 72 kDa was separated. The activation of this kinase was confirmed by examining the phosphorylation of the tyrosine moiety in the kinase per se by western blotting with the use of anti-tyrosine phosphorylation antibody. Then the extent of the phosphorylation was numerically expressed by using an image analyzer and thus the tyrosine kinase phosphorylation inhibitory ratio of the compound 101 was determined

[3] = [3H]-serotonin release, IgE-sensitized RBL-2H3 cells, antigen stimulation, read-out: IC50 (μM) in serotonin liberation from RBL-2H3 cells
[4] = histamine, read-out: IC50 (μM) in mediator liberation from human basophils: histamine
[5] = peptide leukotriene, read-out: IC50 (μM) in mediator liberation from human basophils: leukotriene

T1 sequence (Q64725 whole entry): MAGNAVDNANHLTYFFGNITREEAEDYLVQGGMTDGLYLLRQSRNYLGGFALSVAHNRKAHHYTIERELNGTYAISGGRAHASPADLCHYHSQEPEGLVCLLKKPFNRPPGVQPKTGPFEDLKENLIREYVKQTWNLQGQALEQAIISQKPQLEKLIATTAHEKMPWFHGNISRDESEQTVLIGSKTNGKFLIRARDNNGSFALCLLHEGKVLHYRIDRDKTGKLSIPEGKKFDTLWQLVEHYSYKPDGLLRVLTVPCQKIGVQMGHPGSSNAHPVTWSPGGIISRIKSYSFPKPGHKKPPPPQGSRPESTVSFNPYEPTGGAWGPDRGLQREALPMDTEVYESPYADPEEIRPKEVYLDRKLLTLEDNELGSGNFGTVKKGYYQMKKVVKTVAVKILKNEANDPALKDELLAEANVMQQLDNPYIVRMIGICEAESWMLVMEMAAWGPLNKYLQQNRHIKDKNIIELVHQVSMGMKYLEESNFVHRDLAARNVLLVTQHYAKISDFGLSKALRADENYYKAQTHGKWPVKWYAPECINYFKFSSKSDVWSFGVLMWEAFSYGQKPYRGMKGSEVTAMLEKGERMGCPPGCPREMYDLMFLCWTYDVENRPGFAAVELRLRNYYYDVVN
T2 sequence (Q64725 whole entry): as above

| Compound | Inhibitory Strength (%) ([1]; Conc. of Compd. 3 μM) | IC50 (RBL-2H3 cells; [3]) | IC50 (human basophils; [4]) | IC50 (human basophils; [5]) | Inhibitory Strength (%) [2] | Inhibitory Strength (%) ([1]; Conc. of Compd. 10 μM) | Inhibitory Strength (%) ([1]; Conc. of Compd. 30 μM) | IC50 (RBL-2H3 cells; RBL-2H3, read-out: IC50 (μM) in serotonin liberation from RBL-2H3 cells) |
| --- | --- | --- | --- | --- | --- | --- | --- | --- |
| Cc1ccc2c(c1C)N(CCCN)c1ccccc1[S+]2[O-] (stereo not drawn) [Example 8, 1,2-Dimethyl-10-(3-aminopropyl)phenothiazine-5-oxide] | 100% | 0.1 µM | – | – | – | – | – | – |
| Cc1ccc2c(c1C)N(CCCNCc1ccccc1)c1ccccc1[S+]2[O-] (stereo not drawn) [Example 22, 1,2-Dimethyl-10-(3-benzylaminopropyl)-phenothiazine-5-oxide] | 100% | 0.1 µM | 10 to 30 µM | 10 µM | 80% | – | – | – |
| Cc1ccc2c(c1C)N(CCCNCc1ccccc1)c1cc(CCO)ccc1[S+]2[O-] (stereo not drawn) [Example 94] | 100% | < 1 µM | 30 to 100 µM | 10 µM | – | – | – | – |
| Cc1ccc2c(c1C)N(CCCN1CCCCC1)c1ccccc1[S+]2[O-] (stereo not drawn) [Example 104] | 100% | < 3 µM | – | – | – | – | – | – |
| Cc1ccc2c(c1C)N(CCCN(CCO)Cc1ccccc1)c1ccccc1[S+]2[O-] (stereo not drawn) [Example 105] | 100% | 2 µM | 30 µM | 10 to 30 µM | – | – | – | – |
| Cc1ccc2c(c1C)N(CCCN1CCN(S(=O)(=O)c3ccccc3)CC1)c1ccccc1[S+]2[O-] (stereo not drawn) [Example 115] | – | 3 µM | 30 to 100 µM | 10 µM | – | 80% | – | – |
| Cc1ccc2c(c1C)N(CCCNc1ccccc1)c1ccccc1[S+]2[O-] (stereo not drawn) [Example 123] | – | 3 µM | 30 µM | 10 to 30 µM | – | – | 100% | – |
| Cc1ccc2c(c1C)N(CCCN1CCC(O)(c3ccccc3)CC1)c1ccccc1[S+]2[O-] (stereo not drawn) [Example 124] | – | – | 10 to 30 µM | 10 µM | 100% | 100% | – | 2 µM |
| Cc1ccc2c(c1C)N(CCCN1CCC(Cc3ccccc3)CC1)c1ccccc1[S+]2[O-] (stereo not drawn) [Example 127] | – | 2 µM | 10 to 30 µM | 10 µM | 100% | 100% | – | – |
| Cc1ccc2c(c1C)N(CCCN1CCC(C(=O)O)CC1)c1ccccc1[S+]2[O-] (stereo not drawn) [Example 129] | 100% | < 1 µM | – | – | – | – | – | – |
| Cc1ccc2c(c1C)N(CCCN(CC(=O)O)CC(=O)O)c1ccccc1[S+]2[O-] (stereo not drawn) [Example 132] | 100% | 2 µM | – | – | – | – | – | – |
| Cc1ccc2c(c1C)N(C/C=C/CNCc1ccccc1)c1ccccc1[S+]2[O-] (stereo not drawn) [Example 138, 1,2-Dimethyl-10-[4-benzylamino(2-butenyl)]phenothiazine-5-oxide] | – | 3 µM | 10 to 30 µM | 10 µM | – | 100% | – | – |
| Cc1ccc2c(c1C)N(CCCCNCc1ccccc1)c1ccccc1[S+]2[O-] (stereo not drawn) [Example 139] | – | 2 µM | 30 to 100 µM | 10 to 30 µM | – | 100% | – | – |
| Cc1ccc2c(c1C)N(CCNCc1ccccc1)c1ccccc1[S+]2[O-] (stereo not drawn) [Example 143, 1,2-Dimethyl-10-(2-benzylaminoethyl)phenothiazine-5-oxide] | – | 3 µM | < 10 µM | < 10 µM | – | 100% | – | – |
| Cc1ccc2c(c1C)N(CCN(C)Cc1ccccc1O)c1ccccc1[S+]2[O-] (stereo not drawn) [Example 179] | – | 2 µM | 10 to 30 µM | 3 to 10 µM | – | 100% | – | – |
| COc1ccccc1CN(C)CCN1c2ccccc2[S+]([O-])c2ccc(C)c(C)c21 (stereo not drawn) [Example 182] | – | 2 µM | 30 to 100 µM | 10 to 30 µM | – | – | – | – |
| Cc1ccc2c(c1C)N(CCN(C)Cc1ccccc1OCCO)c1ccccc1[S+]2[O-] (stereo not drawn) [Example 183] | – | 3 µM | 30 to 100 µM | 10 to 30 µM | – | – | – | – |
| Cc1ccc2c(c1C)N(CCN(C)Cc1cccc(CO)c1O)c1ccccc1[S+]2[O-] (stereo not drawn) [Example 185] | – | 0.5 µM | 10 to 30 µM | < 3 µM | – | – | – | – |
| Cc1ccc2c(c1)N(CCCN(C)Cc1ccccc1O)c1c(ccc(C)c1C)[S+]2[O-] (stereo not drawn) [Example 188] | – | 1 µM | 10 µM | 3 to 10 µM | – | – | – | – |
| COc1ccc2c(c1)N(CCCN(C)Cc1ccccc1O)c1c(ccc(C)c1C)[S+]2[O-] (stereo not drawn) [Example 189] | – | 0.8 µM | 3 to 10 µM | 3 to 10 µM | – | – | – | – |
| Cc1ccc2c(c1C)N(CCCN(C)Cc1ccccc1)c1cc(-c3nnn(C)n3)ccc1[S+]2[O-] (stereo not drawn) [Example 190] | – | 0.5 µM | 3 µM | 10 µM | – | – | – | – |
| Cc1ccc2c(c1C)N(CCN(CCO)Cc1ccccc1)c1ccccc1[S+]2[O-] (stereo not drawn) [Example 193] | – | 2 µM | 30 µM | 10 µM | – | – | – | – |
| Cc1ccc2c(c1C)N(CCNCc1ccc(S(N)(=O)=O)cc1)c1ccccc1[S+]2[O-] (stereo not drawn) [Example 195] | – | 0.5 µM | 30 to 100 µM | 10 to 30 µM | – | – | – | – |
| Cc1ccc2c(c1C)N(CCCN)c1ccccc1S2(=O)=O [Example 196, 1,2-Dimethyl-10-(3-aminopropyl)phenothiazine-5,5-dioxide] | – | 5 µM | – | – | – | – | 30% | – |
| Cc1ccc2c(c1C)N(CCCNCc1ccccc1)c1ccccc1S2(=O)=O [Example 200] | – | 0.4 µM | – | – | – | – | 70% | – |
| Cc1ccc2c(c1C)N(CCCNCc1ccccc1)c1cc(CCO)ccc1S2(=O)=O [Example 201] | – | 10 µM | 10 µM | < 10 µM | – | – | 30-70% | – |
| Cc1ccc2c(c1C)N(CCCN(CCO)Cc1ccccc1)c1ccccc1S2(=O)=O [Example 202] | – | 6 µM | 10 to 30 µM | < 10 µM | – | – | 80% | – |
| Cc1ccc2c(=NOCCC(=O)O)c3ccccc3n(CCCNCc3ccccc3)c2c1C [Example 235] | 100% | < 1 µM | 30 µM | 30 µM | – | – | – | – |
| Cc1ccc2c(=NOC(C)C(=O)O)c3ccccc3n(CCCNCc3ccccc3)c2c1C (stereo not drawn) [Example 236] | 70% | 1 µM | – | – | – | – | – | – |
| Cc1ccc2c(c1C)N(CCCNCc1ccccc1)c1cccc(CC(=O)O)c1[S+]2[O-] (stereo not drawn) [Example 262] | – | 8 µM | – | – | – | – | 100% | – |
